Results: patent publication US20260306460A1, “COMPOSITION FOR REMOVING AND INHIBITING SENESCENT CELLS, AND USES THEREOF” (LIFECEUTIX CO., LTD., priority 2023, published 2026)
Values joined by “and” are separate entries in the source; they are usually repeats but may differ in a detail not shown here. Identical values can stand only once.

Legend:
[1] = system: HMGN1 secreted from senescent A549 cells; assay: HMGN1 secretion (ELISA) from senescent A549 cancer cells, Example 12; type: cell-based, human; details: senescent untreated = 100%; 30 μM; 90 μM for LX-305, 905, 1302, 1601, 1603, 2003, 2702, 2901, 3106; 270 μM for LX-1103, 2005, 2007;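 also: A549 cells made senescent by doxorubicin exposure, with DMSO-treated cells serving as the non-senescent control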
Protocol: Cells were treated with doxorubicin or control (DMSO) and cultured.

senescent foreskin cells = assay: Survival of senescent human cells treated with supernatant (secreted fluid) from death-induced cells, Example 13; type: cell-based; details: Table 8; supernatant from dying senescent cells treated at 30, 90 or 270 μM (as Example 11); senescent treated cells
Protocol: After 3 days, cell viability was measured using CellTiter-Glo Luminescent Cell Viability Assay (Promega) or light microscopy.
During this additional culture, by checking with an optical microscope, etc., the medium supernatants containing secreted fluid from normally proliferating and senescent cells in which cell death was induced were obtained. The obtained medium supernatant was replaced with the medium of normally proliferating and senescent cells, respectively, and cell survival rate was measured after 3 days.

[2] = system: naturally aged C57BL6J mice; assay: Skin aging (dermal thickness, COL1A1 and SDF1 mRNA, hair loss) in naturally aged mice, Example 21-10, Table 25; type: in vivo, mouse; details: for Dermal Thickness (μm): mouse, in vivo
Protocol: (§1) 22-month-old female C57BL6J mice (KRIBB Laboratory Animal Resource Center) were acclimated to the experimental environment for one week, after which the aged mice were randomly assigned to experimental and control groups. Eight-week-old, non-aged mice served as controls. LX-403 was mixed in a 10% ethanol solution of PEG400 and administered orally at a concentration of 25 mg/kg daily for 21 days, or administered to the skin, joints, or eyes at a concentration of 1 μM. LX-1801 was mixed in distilled water with 4% DMSO, 30% PEG300, and 5% Tween80 and administered to the skin, joints, or eyes at a concentration of 0.4 μM daily for 21 days. LX-2001 was mixed in PBS and administered to the skin, joints, or eyes at a concentration of […] daily for 21 days. LX-2002 was mixed in distilled water with 4% DMSO, 30% PEG300, and 5% Tween80 and administered to the skin, joints, or eyes at a concentration of 2 μM daily for 21 days. […] LX-2005 was mixed in distilled water with 4% DMSO, 30% PEG300, and 5% Tween80 and administered to the skin, joints, or eyes at a concentration of 90 μM daily for 21 days. LX-2007 was mixed in distilled water with 4% DMSO, 30% PEG300, and 5% Tween80 and administered to the skin, joints, or eyes at a concentration of 90 μM daily for 21 days. […] LX-3002 was mixed in distilled water with 4% DMSO, 30% PEG300, and 5% Tween80 and administered orally at a concentration of 10 mg/kg daily for 21 days. […] LX-5411 was mixed in 5% PBS and administered orally at a concentration of 10 mg/kg daily for 21 days or administered to the skin, joints, or eyes at a concentration of 3 μM. LX-5701 was mixed in PBS and administered orally at a concentration of 360 mg/kg daily for 21 days. LX-6807 was mixed in saline and administered intraperitoneally at a concentration of 1 mg/kg daily for 21 days. LX-2101 or LX-2102 was mixed in PBS solution with 5% DMSO and administered intraperitoneally at a concentration of 20 mg/kg or 10 mg/kg, respectively, daily for 21 days. The control group received only the solution in the same volume. After the end of drug administration, the methods described in each example below were performed.
Frozen sections of skin tissue were stained with Hematoxylin/Eosin (H/E), and the dermal thickness was observed under an optical microscope. Furthermore, the mRNA levels of collagen (COL1A1), a skin component, and SDF1, which suppresses age-related pigmentation, were measured using qRT-PCR as described in Example 7-2 of WO2023-085787 A1. […] Furthermore, biweekly examinations were performed to assess the onset of hair loss due to aging.

[3] = system: naturally aged C57BL6J mice; type: in vivo, mouse; details: after 7 days; 6 mm punch dorsal skin wounds; naturally aged mice; untreated aged 3.2 (±0.4)
[4] = system: naturally aged C57BL6J mice; assay: Hot plate joint pain test in naturally aged mice, Example 21-12, Table 27; type: in vivo, mouse; details: hot plate 55° C., untreated aged 6.9 (±1.8)
Protocol: as §1
RNA was extracted from joint tissue as described in Example 7-2 of WO2023-085787 A1, and qRT-PCR was performed using the synthesized cDNA. […] To analyze joint pain due to joint aging, hotplate analysis was performed. Specifically, thermal pain thresholds were measured using a hot plate. After acclimating mice to a temperature of 30° C. for 10 minutes, the time required for hind paw licking or jumping responses to occur at 55° C. was measured. To prevent tissue damage, the response was measured for less than 30 seconds, and the average value was used from five measurements.

[5] = system: naturally aged C57BL6J mice; assay: Cataract incidence in naturally aged mice, Example 21-15, Table 30; type: in vivo, mouse; details: orally twice a week, 360 mg/kg, until death, untreated aged 83
Protocol: as §1
Cataracts, which occur with age, are a disease that causes visual impairment due to clouding of the lens and are a major cause of blindness. The mice of Example 21-1 were treated with the test compound mixed in PBS orally twice a week at a concentration of 360 mg/kg. Cataract development was assessed biweekly until death.

[6] = system: NaIO3-induced retinal degenerative C57BL6J mice; assay: NaIO3 retinal degeneration in mice (p16 mRNA, outer nuclear layer thickness), Example 29, Table 53; type: in vivo, mouse; details: daily for 21 days; for Outer nuclear layer thickness: untreated 27.4 (±1.3); for p16 mRNA: untreated 100%
Protocol: Then, retinal degenerative diseases were induced for more than 7 days by intravenous administration of 20 mg/kg of NaIO3, an oxidizing agent that induces retinal pigment epithelial cell death and retinal degeneration. Mice with retinal degenerative diseases were randomly assigned to experimental and control groups. […] The control group received only the solution in the same volume. […] In addition, frozen sections of the other eye tissue were stained with H/E (Hematoxylin/Eosin), and the thickness of the outer nuclear layer (ORL) was observed under an optical microscope. […] The mRNA amount after aging induction was calculated as 100% and compared with the mRNA amount of p16 after treatment with the test compound.

[7] = naturally aged mice, untreated aged = 100
[8] = skin, naturally aged mice, untreated aged = 1

Compound | HMGN1 [1] | Survival (senescent foreskin cells) | Dermal Thickness (μm) [2] | Relative area of hair loss (%) [2, 7] | Col1a1 mRNA (Fold) [2, 8] | SDF1 mRNA (fold) [2, 8] | Wound size (mm) [3] | Response time (s) [4] | Cataract incidence (%) [5] | Outer nuclear layer thickness [6] | p16 mRNA [6] | Col1a1 mRNA (Fold) ([2]; topical) | Relative area of hair loss (%) ([2]; topical) | SDF1 mRNA (fold) ([2]; topical)
C=C(C)[C@@H]1CC[C@]2(C(=O)O)CC[C@]3(C)[C@H](CC[C@@H]4[C@@]5(C)CC[C@H](O)C(C)(C)[C@@H]5CC[C@]43C)[C@@H]12 [LX-2005, Betulinic acid] | 252% | 91.6 | 227 (±28.4) μm | 80 (±4.9) % | 1.7 (±0.2) Fold | 1.9 (±0.2) fold | 2.9 (±0.3) mm | 4.9 (±1.2) s | 72% | 30.9 (±3.8) μm | 71 (±4.9) % | – | – | –
CC1(C)C=C2[C@H]3CC[C@@H]4[C@@]5(C)CCC(=O)C(C)(C)[C@@H]5CC[C@@]4(C)[C@]3(C)CC[C@@]2(C(=O)O)CC1 [LX-2007, Moronic acid] | 192% | 95.7 | 219 (±31.1) μm | 86 (±5.5) % | 1.6 (±0.3) Fold | 1.3 (±0.2) fold | 3.0 (±0.2) mm | 5.8 (±0.5) s | 80% | 29.4 (±7.5) μm | 75 (±5.9) % | – | – | –
CC1(C)CC[C@]2(NC(=O)C(C)(F)F)CC[C@]3(C)[C@H](C(=O)C=C4[C@@]5(C)C=C(C#N)C(=O)C(C)(C)[C@@H]5CC[C@]43C)[C@@H]2C1 [LX-2101, Omaveloxolone] | 297% | 39.7 | 224 (±11.1) μm and 251 (±15.1) μm | 82 (±8.9) % | 2.5 (±0.2) Fold | 1.4 (±0.3) fold | 1.9 (±0.3) mm | 5.1 (±0.4) s | 77% | 29.4 (±7.5) μm and 39 (±4.1) μm | 80 (±2.7) % and 67 (±7.0) % | 2.2 (±0.2) Fold | 79 (±4.1) % | 1.9 (±0.3) fold
Tocofersolan [LX-3001] | 261% | 58.7 | 223 (±15.7) μm | – | – | – | 2.4 (±0.1) mm | 6.1 (±0.6) s | 73% | 34.1 (±2.1) μm | 80 (±2.5) % | – | – | –
